Source: PubChem BioAssay (NCI)
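Following 48 hours of exposure in 96-well plates, responses at five concentrations were used to interpolate endpoints linearly. The concentration for 50% growth inhibition is given as GI50. At the TGI there is no net growth.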

How the values were obtained:
Experiment in all cases: NCI-60 cell line screen, 48 h
BT-549 breast = tested on: BT-549 breast
HS 578T breast = tested on: HS 578T breast
MCF7 breast = tested on: MCF7 breast
MDA-MB-231 breast = tested on: MDA-MB-231 breast
PC-3 prostate = tested on: PC-3 prostate
T-47D breast = tested on: T-47D breast
DMS 114 small cell lung = tested on: DMS 114 small cell lung
DMS 273 small cell lung = tested on: DMS 273 small cell lung

Compound | GI50 (BT-549 breast) [µM] | TGI (BT-549 breast) [µM] | GI50 (HS 578T breast) [µM] | TGI (HS 578T breast) [µM] | GI50 (MCF7 breast) [µM] | TGI (MCF7 breast) [µM] | GI50 (MDA-MB-231 breast) [µM] | TGI (MDA-MB-231 breast) [µM] | GI50 (PC-3 prostate) [µM] | TGI (PC-3 prostate) [µM] | GI50 (T-47D breast) [µM] | TGI (T-47D breast) [µM] | TGI (DMS 114 small cell lung) [µM] | TGI (DMS 273 small cell lung) [µM]
CCCCCCCNc1nc(C(=O)OCC)ncc1-c1ccc(C(F)(F)F)cc1 | 29.1 | 97.7 | 46.6 | > 100 | 28.1 | > 100 | 33.3 | > 100 | 26.6 | > 100 | 28.1 | > 100 |  | 
O=C1C=C(NCCNC(=S)Nc2ccccc2)c2nccc3c2c1nc1ccccc13 | 70.1 | > 100 | > 100 | > 100 | 23.3 | > 100 | 94.5 | > 100 | > 100 | > 100 | > 100 | > 100 |  | 
O=C(O)[C@@H]1[C@H](C(=O)O)[C@H](C(=O)O)C[C@@H]1C(=O)O |  | > 100 |  | > 100 |  | > 100 |  | > 100 |  | > 100 |  | > 100 |  | 
O=C(c1ccc2ccccc2c1)c1c(C(F)(F)F)n([O-])c2cc(F)c(F)cc2[n+]1=O | 1.89 | 4.17 |  |  | 3.11 | > 100 | 1.86 | 3.99 | 1.48 | 2.9 | 2.67 | 6.14 |  | 
CC1(C)CC[C@H](Nc2ncc(C(F)(F)F)c(-c3c[nH]c4c(P(C)(C)=O)c(C#N)ccc34)n2)CN1 | 0.0758 | 3.67 | 0.736 | 10.6 | < 0.0137 | 10.2 | 0.4 | 9.08 | 0.0396 | 43.3 | 0.0255 | 5.84 |  | 
COc1ccc(Nc2ncc(Br)c(NCCCNC(=O)C3CCC3)n2)cc1 | 3.62 | 15.9 | 3.23 | 9.2 | 16.1 | 67.5 | 5.06 | 60.3 | 14.5 | > 100 | 41.2 | 98.7 |  | 
COc1ccc2c(c1)/C(=C\c1cccnc1)C(=O)N2 | 13.3 | 32.3 | 31.1 | 94.7 | 10.9 | 53.4 | 16.3 | 35.5 | 33.1 | > 100 | 13 | 37.9 |  | 
COc1ccc(-c2cc(=O)c3c(C)cc(C)nc3[nH]2)cc1 |  | 86.7 |  | > 100 |  | > 100 |  | 67.5 | 23.9 | > 100 |  | > 100 |  | 
COc1cc(CCN)c2c(c1OC)SSSSS2 | 0.793 | 2.23 | 2.11 | 5.17 |  |  | 1.49 | 2.92 | 1.59 | 2.93 |  |  |  | 
CCc1n(Cc2ccc3ccccc3n2)cc[n+]1Cc1ccc2ccccc2n1 | 0.278 | 11.2 | 1.88 | 26.1 | 0.135 | 11.6 | 0.441 | 4.16 | 0.163 | 10.7 | 0.046 | 0.794 |  | 
Cc1c(S(C)(=O)=O)c(-c2cc(F)cc(N3CCN(c4ccc(NS(=O)(=O)c5ccc(N[C@H](CCN6CCC(C(=O)OCCCP(=O)(O)O)CC6)CSc6ccccc6)c(S(=O)(=O)C(F)(F)F)c5)cc4)CC3)c2)c(-c2ccc(Cl)cc2)n1C(C)C | > 100 | > 100 | > 100 | > 100 | > 100 | > 100 | 3.13 | 28 | > 100 | > 100 | > 100 | > 100 |  | 
COc1ccc(-c2nc3sc(-c4ccc(Cl)cc4)cn3n2)cc1 | 43.2 | > 50 | 2.31 | > 50 | 2.62 | > 50 | 2.06 | 16.7 | > 50 | > 50 | 3.54 | > 50 |  | 
C/C(=N\O)c1cccc(Nc2cc(-n3ccnn3)c3ccccc3n2)c1 | 18.9 | 53.9 | 16.4 | 87.8 | > 100 | > 100 | 10.2 | 25.9 | 15.6 | 38 | 14.9 | 64.9 |  | 
O=C1C(c2c[nH]c3ccccc23)=C(c2c[nH]c3ccccc23)C(=O)N1O | > 25 | > 25 | > 19.7 | > 25 | > 25 | > 25 | > 19.4 | > 25 | > 25 | > 25 | > 25 | > 25 |  | 
COc1ccc2c(c1)C(=O)c1c-2n(CCCN=[N+]=[N-])c(=O)c2cc(N(C)C)ccc12 | 6.15 | > 100 | 37.5 | > 100 | > 100 | > 100 | > 100 | > 100 | > 100 | > 100 | 61.3 | > 100 |  | 
OC1c2ccccc2C2(O)C1C(c1ccccc1)C(c1ccccc1)C2(O)c1ccccc1 (stereo unspecified) |  |  |  |  |  |  |  |  |  |  |  |  | 41.8 | 23.5
COc1ccc(C2SCC(=O)N2NC(=O)C(O)c2ccccc2)cc1OC (stereo unspecified) | > 100 | > 100 | > 100 | > 100 | > 100 | > 100 | > 100 | > 100 | > 100 | > 100 | > 100 | > 100 |  | 
Cc1ccc(S(=O)(=O)NCCNC2=CC(=O)c3nc4ccccc4c4ccnc2c34)cc1 | 19.2 | 46.1 | 27 | 79.9 | 12.9 | 32.7 | 24 | 66.1 | 16 | 49.8 | 25.6 | 95.9 |  | 
COc1ccc(N2Cc3cnc(Nc4ccccc4)nc3N([C@@H]3CC[C@@H](O)C3)C2=O)cc1 | 5.27 | > 25 | 0.671 | 6.2 | 16.5 | > 25 | 5.18 | > 22.3 | 6.93 | > 25 | 11.9 | > 25 |  | 
